Measurements published in US6890946B2, “Use of parthenolide to inhibit cancer” (Indiana University Research and Technology Corporation, priority 1999, dated 2005).
One block for each compound: values may come before it. Peptide text beside a SMILES is read from it. * marks the point of attachment. Cbz = O=C(OCc1ccccc1)*

What was measured:
[1] = system: NF-κB DNA binding in HUVECs; test: electromobility gel shift assay of NF-κB DNA binding in HUVECs; details: three hours, bFGF 50 ng/mL, VEGF 100 ng/mL, rhuMAb VEGF 10 mg/mL
Method: HUVECs were plated on 100 mm plates and harvested in an exponential growth phase. […] The mixture was then electrophoresed. Specific NF-κB binding to DNA was identified by the presence of a signal seen at autoradiography. The protein-DNA complex was slower to migrate whereas unbound DNA and protein migrated off the gel.

[2] = system: NF-κB DNA binding activity in MDA-MB-231 cells; test: EMSA of NF-κB DNA binding activity in MDA-MB-231 cells; details: parthenolide 1, 2 and 5 μM for 3 h
Method: (§2) Electrophoretic Mobility Shift Assays (EMSAs). […] Cells were collected by trypsinization, washed in phosphate-buffered saline and resuspended in 125 μl of 2 μgs/ml RNase and 300 μl of propidium iodide containing buffer (50 μg/ml propidium iodide, 1 mg/ml sodium citrate, 0.03% NP40). The amount of propidium iodide incorporated was determined by FAScan analysis and the cell cycle distribution was determined using ModFit computer Software. Cell cycle distribution analysis was performed in a single blinded manner. Only diploid cells were considered while calculating the percentage of cells at each phase of cell cycle. • H. Statistical Analysis.

HBL100 cells [3] = test: MTS cell survival assay, HBL100 cells; format: cell-based; details: Homo sapiens, HBL-100, HBL100, 18 h, single agent, read-out: Half-maximal growth-inhibitory concentration (IC50)
LxSN11 cells [4] = test: flow cytometry cell cycle distribution, LxSN11 cells; details: paclitaxel increased from 3 nM to 5 nM
Method: (§3) Apoptosis was measured by a histone-ELISA (Roche Diagnostics, Indianapolis, Ind.). […] Histone-DNA complexes in the supernatant were detected by ELISA. For the PARP cleavage assay, 5×10^5 cells were exposed to the indicated drugs for 24 h. […] Cells were collected by trypsinization, washed in phosphate-buffered saline and resuspended in 125 μl of 2 μgs/ml RNase and 300 μl of propidium iodide containing buffer (50 μg/ml propidium iodide, 1 mg/ml sodium citrate, 0.03% NP40). The amount of propidium iodide incorporated was determined by FAScan analysis and the cell cycle distribution was determined using ModFit computer Software. Cell cycle distribution analysis was performed in a single blinded manner. Only diploid cells were considered while calculating the percentage of cells at each phase of cell cycle. • H. Statistical Analysis. In synergy experiments, dose response curves for single agents were generated first.
(§4) Only diploid cells were considered while calculating the percentage of cells in different phases of the cell cycle.

p65−/− fibroblasts = test: cell cycle progression of p65−/− fibroblasts; details: for p65−/− G0/G1 / p65−/− S / p65−/− G2/M: 18 h
Method: as §2

LxSN11 and IκBαSR cells = test: flow cytometry cell cycle analysis, all cell types (LxSN11 and IκBαSR clones of MDA-MB-231); details: 3 nM paclitaxel
Method: as §3, §4

LxSN11 cells [5] = test: cell death ELISA (apoptosis), LxSN11 cells; details: 18 h of paclitaxel treatment, culture supernatants
Method: Apoptosis was measured by ELISA.
(§5) To avoid loss of hypodiploid or other damaged cells during processing, the assay was performed with cell culture supernatants.

HBL100 cells [6] = test: cell cycle distribution analysis, HBL100 cells; format: cell-based; details: HBL100 (data not shown)
From the text: (§1) The invention will be further described by reference to the following detailed examples wherein the following materials and methods were employed: • A. Breast Cancer Cell Lines. […] Electrophoretic Mobility Shift Assays (EMSAs). […] Antibodies for supershift assays were purchased from Santa Cruz Biotechnology (CA) or Upstate Biotechnology (NY). • D. Western Blotting. […] IκBα and Mn-SOD antibodies were purchased from Santa Cruz Biotechnology (CA) and Upstate Biotechnology, respectively. • E. Northern Blotting and RNase Protection. […] Twenty μgs of RNA were subjected to RNase protection using the hAPO-5 probe (PharMingen, San Diego, Calif.) as described by the manufacturers. • F. Drug Treatment, Cell Death Assays, Apoptosis Assay and PARP Cleavage. […] Apoptosis was measured by a histone-ELISA (Roche Diagnostics, Indianapolis, Ind.). […] Histone-DNA complexes in the supernatant were detected by ELISA. For the PARP cleavage assay, 5×10^5 cells were exposed to the indicated drugs for 24 h. […] Cells were collected by trypsinization, washed in phosphate-buffered saline and resuspended in 125 μl of 2 μgs/ml RNase and 300 μl of propidium iodide containing buffer (50 μg/ml propidium iodide, 1 mg/ml sodium citrate, 0.03% NP40). The amount of propidium iodide incorporated was determined by FAScan analysis and the cell cycle distribution was determined using ModFit computer Software. […]

MDA-MB-231 cells = test: MTS cell survival assay, MDA-MB-231 cells; format: cell-based
From the text: as §1

IκBαSR10 cells = test: cell death ELISA (apoptosis), IκBαSR10 cells; details: 18 h of paclitaxel treatment, culture supernatants
Method: Apoptosis was measured by ELISA.
as §5

IκBαSR6 cells = test: flow cytometry cell cycle distribution, IκBαSR6 cells; details: 5 nM paclitaxel, IκBαSR6, diploid cells only
Method: as §3, §4

wild type fibroblasts = test: cell cycle progression of wild type fibroblasts; details: for Wild type G0/G1 / Wild type G2/M / Wild type S: 18 h
Method: as §2

[7] = system: PARP cleavage in HBL100 cells; test: PARP cleavage Western blot, HBL100 cells; format: cell-based; details: HBL100, 24 h, single agents: paclitaxel 1 nM and 5 nM, parthenolide 0.1 μM and 0.5 μM
From the text: as §1

breast cancer = details: cited from earlier work

effect on NF-κB DNA binding [1]: did not alter baseline NF-κB DNA binding
Compound: VEGF

Compound: CC(=O)N[C@@H](CS)C(=O)O [N-acetyl cysteine]
ability to inhibit NF-κB DNA binding activity [2]: Only parthenolide, MG132 and Bay 11-7085 inhibited

Compound: CC(C)(C)c1ccc(S(=O)(=O)/C=C/C#N)cc1 [Bay 11-7085]
ability to inhibit NF-κB DNA binding activity [2]: inhibited

Compound: O=C(O[C@@H]1Cc2c(O)cc(O)cc2O[C@@H]1c1cc(O)c(O)c(O)c1)c1cc(O)c(O)c(O)c1 [epigallocatechin gallate]
ability to inhibit NF-κB DNA binding activity [2]: Only parthenolide, MG132 and Bay 11-7085 inhibited

Compound: CC(=O)O[C@H]1C(=O)[C@@]2(C)[C@H]([C@H](OC(=O)c3ccccc3)[C@]3(O)C[C@H](OC(=O)[C@H](O)[C@@H](NC(=O)c4ccccc4)c4ccccc4)C(C)=C1C3(C)C)[C@]1(OC(C)=O)CO[C@@H]1C[C@@H]2O [paclitaxel]
IC50 (HBL100 cells [3]): 10 nM
cell cycle distribution pattern (LxSN11 cells [4]): did not alter the cell cycle distribution pattern
effect on cell cycle distribution (p65−/− fibroblasts; p65−/− fibroblasts): had no effect
p65−/− G0/G1 (p65−/− fibroblasts; paclitaxel 1 nM): 47 ± 2
p65−/− S (p65−/− fibroblasts; paclitaxel 1 nM): 53 ± 1
p65−/− G0/G1 (p65−/− fibroblasts; paclitaxel 3 nM): 39 ± 6
p65−/− G2/M (p65−/− fibroblasts; paclitaxel 3 nM): 1
p65−/− S (p65−/− fibroblasts; paclitaxel 3 nM): 61 ± 7
p65−/− G0/G1 (p65−/− fibroblasts; paclitaxel 5 nM): 47 ± 2
p65−/− G2/M (p65−/− fibroblasts; paclitaxel 5 nM): 14
p65−/− S (p65−/− fibroblasts; paclitaxel 5 nM): 46 ± 6
p65−/− G0/G1 (p65−/− fibroblasts; paclitaxel 10 nM): 47 ± 2
p65−/− G2/M (p65−/− fibroblasts; paclitaxel 10 nM): 6 ± 4
p65−/− S (p65−/− fibroblasts; paclitaxel 10 nM): 48 ± 6
hypodiploid cells (LxSN11 and IκBαSR cells): approximately 30%
apoptosis by cell death ELISA (LxSN11 cells [5]): only a marginal increase in apoptosis
G2/M arrest (HBL100 cells [6]): arrested at G2/M
IC50 (MDA-MB-231 cells; Homo sapiens, MDA-MB-231, 18 h, MTS, single agent): > 30 nM
cells killed (MDA-MB-231 cells; MDA-MB-231, 30 nM or higher concentrations of paclitaxel): 30%
apoptosis by cell death ELISA (IκBαSR10 cells): substantial increase in apoptotic death
percentage of cells at G2/M (IκBαSR6 cells): 70.37±14.9%
Wild type G0/G1 (wild type fibroblasts; paclitaxel 1 nM): 68 ± 4
Wild type G2/M (wild type fibroblasts; paclitaxel 1 nM): 17 ± 8
Wild type S (wild type fibroblasts; paclitaxel 1 nM): 20 ± 4
Wild type G0/G1 (wild type fibroblasts; paclitaxel 3 nM): 70 ± 3
Wild type G2/M (wild type fibroblasts; paclitaxel 3 nM): 14 ± 5
Wild type S (wild type fibroblasts; paclitaxel 3 nM): 16 ± 1
Wild type G0/G1 (wild type fibroblasts; paclitaxel 5 nM): 71 ± 3
Wild type G2/M (wild type fibroblasts; paclitaxel 5 nM): 17 ± 6
Wild type S (wild type fibroblasts; paclitaxel 5 nM): 16 ± 4
Wild type G0/G1 (wild type fibroblasts; paclitaxel 10 nM): 73 ± 2
Wild type G2/M (wild type fibroblasts; paclitaxel 10 nM): 16 ± 6
Wild type S (wild type fibroblasts; paclitaxel 10 nM): 15 ± 2
effect on cell cycle distribution (wild type fibroblasts; wild type fibroblasts): had no effect
PARP cleavage product [7]: No PARP cleavage product was observed

Compound: CC(=O)CCCCn1c(=O)c2c(ncn2C)n(C)c1=O [pentoxyphylline]
ability to inhibit NF-κB DNA binding activity [2]: Only parthenolide, MG132 and Bay 11-7085 inhibited

effect on NF-κB DNA binding [1]: did not alter NF-κB DNA binding
Compound: rhuMAb VEGF: anti-angiogenic agent provided by Genentech, used in the electromobility gel shift assay
patients with tumor regression (breast cancer): 20%

Compound: CC(C)C[C@@H](C=O)NC(=O)[C@H](CC(C)C)NC(=O)[C@H](CC(C)C)NC(=O)OCc1ccccc1 [MG132] (Cbz-Leu-Leu-Leu-aldehyde)
ability to inhibit NF-κB DNA binding activity [2]: inhibited

Compound: COc1cc(/C=C/C(=O)CC(=O)/C=C/c2ccc(O)c(OC)c2)ccc1O [Curcumin]
ability to inhibit NF-κB DNA binding activity [2]: Only parthenolide, MG132 and Bay 11-7085 inhibited

effect on NF-κB DNA binding [1]: induced greater DNA binding than VEGF
Compound: bFGF: basic Fibroblast Growth Factor (R & D Systems) added to stimulate HUVECs
